These results are taken from patent US9447028B2, “Therapeutic aryl-amido-aryl compounds and their use” (King's College London, priority 2009, dated 2016).

Common to all, as to format: cell-based
For one assay, the target named is T1, RARα (Homo sapiens, UniProt P10276).
T1 construct: gal4 (fusion partner); expressed in transfected cells; host or cells: COS-7
T1 sequence (P10276 183-417 limits assumed): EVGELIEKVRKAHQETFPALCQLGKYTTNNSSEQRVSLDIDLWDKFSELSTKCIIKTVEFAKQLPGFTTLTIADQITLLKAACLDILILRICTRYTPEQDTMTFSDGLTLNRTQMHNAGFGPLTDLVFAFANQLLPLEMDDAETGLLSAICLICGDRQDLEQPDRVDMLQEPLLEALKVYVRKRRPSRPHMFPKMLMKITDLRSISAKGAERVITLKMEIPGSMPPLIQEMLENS
The experiment in a line: Transactivation assay for RAR alpha (gal4-RAR fusion, luciferase reporter, COS-7 cells). To be noted: for RARα/RARβ ratio (*): fold-selectivity for RARα over RARβ; for RARα activity ratio: ratio of test compound EC50 to that of atRA on the same plate; for Improvement (RARα activity ratio) / Improvement (RARα/RARβ ratio): compared with XXX-03. As to the method:
(§1) Transcriptional transactivation assays were performed with gal4 fusion receptor constructs, created using each of the RAR ligand binding domains, co-transfected with the pFR-luc (Stratagene™) reporter construct in COS-7 cells.
(§2) Briefly, on day 1, 96 well plates were seeded with 8000 cells per well then left to recover overnight. On day 2, the cells were co-transfected with 100 ng of reporter plasmid and 10 ng of the appropriate receptor plasmid per well using lipofectamine (Invitrogen™). On day 3, the lipofectamine containing media was replaced by a DMEM without phenol red, followed by the addition of test compound dissolved in 1 μL of DMSO to each well's 100 μL total volume. Finally, on day 4, the cells were lysed and their luciferase substrate was provided by the BrightGlo™ reagent (Promega™), the plates were then read on the MicroBeta TriLux™ (Perkin Elmer™).
(§3) Where replicate data has been generated, the data are quoted as a ratio of the mean EC50 from the separate experiments.

In another assay the target is T2, RARβ (Homo sapiens, UniProt P10826).
T2 construct: gal4 (fusion partner); expressed in transfected cells; host or cells: COS-7
T2 sequence (P10826 183-417 limits assumed): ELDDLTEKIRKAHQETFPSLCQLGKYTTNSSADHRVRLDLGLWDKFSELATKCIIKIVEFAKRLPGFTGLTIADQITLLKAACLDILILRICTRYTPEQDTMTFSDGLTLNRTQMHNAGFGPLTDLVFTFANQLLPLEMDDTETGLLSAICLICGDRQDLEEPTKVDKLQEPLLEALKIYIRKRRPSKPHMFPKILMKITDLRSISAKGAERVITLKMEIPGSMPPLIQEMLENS
The experiment in a line: Transactivation assay for RAR beta (gal4-RAR fusion, luciferase reporter, COS-7 cells). To be noted: ratio of test compound EC50 to that of atRA; inactive = no agonist action at the highest concentration tested. As to the method:
as §1, §2, §3
In general terms: In a reporter assay the amount or activity of a reporter protein is the signal.

In a further assay the target is T3, RARγ (Homo sapiens, UniProt P13631).
T3 construct: gal4 (fusion partner); expressed in transfected cells; host or cells: COS-7
T3 sequence (P13631 185-419 limits assumed): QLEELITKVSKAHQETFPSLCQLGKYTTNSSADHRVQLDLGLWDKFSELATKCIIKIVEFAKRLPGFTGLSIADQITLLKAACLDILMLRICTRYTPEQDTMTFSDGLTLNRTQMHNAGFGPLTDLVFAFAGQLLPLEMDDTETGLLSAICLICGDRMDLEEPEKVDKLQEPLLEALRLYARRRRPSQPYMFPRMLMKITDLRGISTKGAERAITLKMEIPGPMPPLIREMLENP
Kind of assay: Transactivation assay for RAR gamma (gal4-RAR fusion, luciferase reporter, COS-7 cells). To be noted: ratio of test compound EC50 to that of atRA; inactive = no agonist action at the highest concentration tested. As for the experimental part: as §1, §2, §3

With `COC(=O)c1ccc(NC(=O)c2cc(Cl)c(OC3CCCC3)c(Cl)c2)cc1` [AAA-002, Methyl 4-(3,5-dichloro-4-(cyclopentyloxy)benzamido)benzoate], at RARα, the “RARα/RARβ ratio (*)” value is recorded as 58.0 and the RARα activity ratio is listed as 50. In addition, the RARβ activity ratio on RARβ is reported as 2900. Further, on RARγ, the RARγ activity ratio result is “inactive”.
Take `CCCOc1c(Cl)cc(C(=O)Nc2ccc(C(=O)O)cc2)cc1Cl` [AAA-003, 4-(3,5-Dichloro-4-propoxybenzamido)benzoic acid]: on RARα, the “Improvement (RARα activity ratio)” value is ~6.0-fold, the “Improvement (RARα/RARβ ratio)” value was ~1.3-fold and the “RARα/RARβ ratio (*)” value is listed as 9.3. In addition, the RARβ activity ratio on RARβ turned out to be 139. Moreover, the RARγ activity ratio at RARγ is reported as 1200.
As for `CC(C)Oc1c(Cl)cc(C(=O)Nc2ccc(C(=O)O)cc2)cc1Cl` [AAA-004, 4-(3,5-Dichloro-4-isopropoxybenzamido)benzoic acid], on RARα, the “Improvement (RARα activity ratio)” value was ~13-fold and the “Improvement (RARα/RARβ ratio)” value is ~29-fold. Further, the RARβ activity ratio on RARβ turned out to be 1420. Also, at RARγ, the RARγ activity ratio worked out at 820.
As to `O=C(O)c1ccc(NC(=O)c2cc(Cl)c(OCc3ccccc3)c(Cl)c2)cc1` [AAA-005, 4-(4-(Benzyloxy)-3,5-dichlorobenzamido)benzoic acid], at RARα, the “Improvement (RARα activity ratio)” value is reported as ~1.3-fold and the “Improvement (RARα/RARβ ratio)” value is listed as ~7.4-fold. For the same molecule, the RARβ activity ratio on RARβ is given as 3570. For the same molecule, the RARγ activity ratio on RARγ is listed as 3770.
Take `COc1cc(C(=O)Nc2ccc(C(=O)O)cc2)cc(Cl)c1OC1CCCC1` [AAA-006, 4-(3-Chloro-4-(cyclopentyloxy)-5-methoxybenzamido)benzoic acid]: the RARβ activity ratio at RARβ came out at 1054. Besides, at RARγ, the RARγ activity ratio amounted to 5840.
As for `CCOc1c(Cl)cc(C(=O)Nc2ccc(C(=O)O)c(F)c2)cc1Cl` [AAA-007, 4-(3,5-Dichloro-4-ethoxybenzamido)-2-fluorobenzoic acid], the RARβ activity ratio at RARβ is on record as 2010. For the same molecule, the RARγ activity ratio result at RARγ is “inactive”.
On the same counts, the results for `CCOc1cc(C(=O)Nc2ccc(C(=O)O)cc2)cc(OC(C)C)c1OCC` [AAA-009, 4-(3,4-Diethoxy-5-isopropoxybenzamido)benzoic acid] are 2450 and 960.
Turning to `O=C(O)c1ccc(NC(=O)c2cc(Cl)c(OCC3CC3)c(Cl)c2)cc1` [AAA-010, 4-(3,5-Dichloro-4-(cyclopropylmethoxy)benzamido)benzoic acid], at RARα, the “Improvement (RARα activity ratio)” value is given as ~0.9-fold and the “Improvement (RARα/RARβ ratio)” value is listed as ~3.5-fold. In addition, the RARβ activity ratio at RARβ stood at 2530. For the same molecule, on RARγ, the RARγ activity ratio entry is “inactive”.
With `O=C(O)c1ccc(NC(=O)c2cc(Cl)c(OC3CCC3)c(Cl)c2)cc1` [AAA-011, 4-(3,5-Dichloro-4-cyclobutoxybenzamido)benzoic acid], at RARα, the “Improvement (RARα activity ratio)” value is ~2.6-fold and the “Improvement (RARα/RARβ ratio)” value is given as ~12-fold. The RARβ activity ratio at RARβ is recorded as 2960. The RARγ activity ratio on RARγ came to 21800.
As for `O=C(O)c1ccc(NC(=O)c2cc(Cl)c(OCc3ccncc3)c(Cl)c2)cc1` [AAA-012, 4-(3,5-Dichloro-4-(pyridin-4-ylmethoxy)benzamido)benzoic acid], on RARα, the “RARα/RARβ ratio (*)” value was found to be 2.4 and the RARα activity ratio was 533. Besides, the RARβ activity ratio at RARβ was 1300. For the same molecule, on RARγ, the RARγ activity ratio entry is “inactive”.
On to `CCOc1c(Cl)cc(NC(=O)c2ccc(C(=O)O)cc2)cc1Cl` [AAA-013, 4-(3,5-Dichloro-4-ethoxyphenylcarbamoyl)benzoic acid], for which, on RARα, the “RARα/RARβ ratio (*)” value turned out to be 11.8 and the RARα activity ratio worked out at 30. In addition, at RARβ, the RARβ activity ratio turned out to be 355. The RARγ activity ratio entry on RARγ is “inactive”.
As for `CCOc1c(Br)cc(NC(=O)c2ccc(C(=O)O)cc2)cc1Br` [AAA-014, 4-(3,5-Dibromo-4-ethoxyphenylcarbamoyl)benzoic acid], on RARα, the “RARα/RARβ ratio (*)” value amounted to 23.3 and the RARα activity ratio came to 58. Further, the RARβ activity ratio on RARβ turned out to be 1350. Moreover, the RARγ activity ratio entry on RARγ is “inactive”.
As to `CCOc1c(C(F)(F)F)cc(NC(=O)c2ccc(C(=O)O)cc2)cc1C(F)(F)F` [AAA-015, 4-(4-Ethoxy-3,5-bis(trifluoromethyl)phenylcarbamoyl)benzoic acid], on RARβ, the RARβ activity ratio is 540. Further, the RARγ activity ratio result on RARγ was “inactive”.
As for `CCOc1c(Cl)cc(C(=O)Nc2ccc(C(N)=O)cc2)cc1Cl` [AAA-016, N-(4-Carbamoylphenyl)-3,5-dichloro-4-ethoxybenzamide], the RARα activity ratio on RARα was 500.
As for `CCOc1c(Cl)cc(C(=O)Nc2ccc(C(=O)OC)c(Cl)c2)cc1Cl` [AAA-017, Methyl 4-(3,5-dichloro-4-ethoxybenzamido)-2-chlorobenzoate], at RARα, the “RARα/RARβ ratio (*)” value is recorded as >500 and the RARα activity ratio is 140. In addition, on RARβ, the RARβ activity ratio entry is “inactive”.
For `CCOc1c(Cl)cc(C(=O)Nc2ccc(C(=O)O)c(Cl)c2)cc1Cl` [AAA-018, 2-Chloro-4-(3,5-dichloro-4-ethoxybenzamido)benzoic acid], at RARα, the “RARα/RARβ ratio (*)” value amounted to 64.0 and the RARα activity ratio worked out at 151. Moreover, the RARβ activity ratio on RARβ is 9660. The RARγ activity ratio result at RARγ was “inactive”.
In the case of `CCOc1c(Cl)cc(C(=O)Nc2ccc(C(=O)O)c(C)c2)cc1Cl` [AAA-019, 4-(3,5-Dichloro-4-ethoxybenzamido)-2-methylbenzoic acid], on RARα, the “Improvement (RARα activity ratio)” value was ~100-fold and the “Improvement (RARα/RARβ ratio)” value is recorded as ~12-fold. Moreover, the RARβ activity ratio at RARβ is 74. The RARγ activity ratio on RARγ is 136.
Consider `CCOc1c(Cl)cc(NC(=O)c2ccc(C(=O)O)cn2)cc1Cl` [AAA-020, 6-(3,5-Dichloro-4-ethoxyphenylcarbamoyl)nicotinic acid], for which, on RARα, the “RARα/RARβ ratio (*)” value came to 2.0 and the RARα activity ratio turned out to be 108. Further, the RARβ activity ratio on RARβ is listed as 214. The RARγ activity ratio result on RARγ was “inactive”.
Turning to `CCOc1c(F)cc(NC(=O)c2ccc(C(=O)O)cc2)cc1F` [AAA-021, 4-(4-Ethoxy-3,5-difluorophenylcarbamoyl)benzoic acid], the RARα activity ratio on RARα was 760.
`CCOc1c(Cl)cc(C(=O)Nc2cc(F)c(C(=O)O)c(F)c2)cc1C(F)(F)F` [AAA-022, 4-(3-Chloro-4-ethoxy-5-(trifluoromethyl)benzamido)-2,6-difluorobenzoic acid]: the “increase in RARα activity” value at RARα (compared with XXX-02) is recorded as 5 fold. In addition, on RARα, the “RARα/RARβ ratio (*)” value is >50 and the RARα activity ratio is given as 448. At RARβ, the RARβ activity ratio result is “inactive”. Also, at RARγ, the RARγ activity ratio result was “inactive”.
With `CCOc1c(Br)cc(C(=O)Nc2ccc(C(=O)O)cc2)cc1Br` [AAA-023, 4-(3,5-Dibromo-4-ethoxybenzamido)benzoic acid], the RARβ activity ratio on RARβ turned out to be 404. Moreover, at RARγ, the RARγ activity ratio was 62370.
Turning to `CCOc1c(Cl)cc(C(=O)Nc2ccc(C(=O)O)cc2)cc1OC` [AAA-024, 4-(3-Chloro-4-ethoxy-5-methoxybenzamido)benzoic acid], on RARα, the “RARα/RARβ ratio (*)” value came out at 12.2 and the RARα activity ratio turned out to be 66. Further, at RARβ, the RARβ activity ratio stood at 805. The RARγ activity ratio on RARγ is recorded as 27200.
`CCOc1c(Cl)cc(C(=O)Nc2ccc(C(=O)O)cn2)cc1Cl` [AAA-027, 6-(3,5-Dichloro-4-ethoxybenzamido)nicotinic acid]: at RARα, the “RARα/RARβ ratio (*)” value is on record as >5 and the RARα activity ratio was determined as 260. Besides, the RARβ activity ratio entry at RARβ was “inactive”.
The corresponding values for `COc1c(Cl)cc(C(=O)Nc2ccc(C(=O)O)c(F)c2)cc1C(F)(F)F` [AAA-066, 4-(3-Chloro-4-methoxy-5-(trifluoromethyl)benzamido)-2-fluorobenzoic acid] are 236, 32 and 7558.
As for `CCOc1ccc(C(=O)Nc2cc(F)c(C(=O)O)c(F)c2)cc1C(F)(F)F` [XXX-02, 4-(4-Ethoxy-3-(trifluoromethyl)benzamido)-2,6-difluorobenzoic acid, reference compound], the RARα activity ratio at RARα was 2242.
